Calls of active or inactive are those of the source. The calls are words filed in the database; no cut-off is given here.
Tests used:
DU-145 = assay: Growth inhibition of human DU145 cells assessed as cell growth at 10^-6 M incubated for 48 hrs by sulforhodamine B assay relative to control; format: functional; details: DU-145, 48 h, read-out: Activity
MDA-MB-435 [1] = assay: Cell cycle arrest in human MDA-MB-435 cells assessed as accumulation at G1-phase by propidium iodide staining based flow cytometry (reference value: 69.15%); format: functional
HL-60 [2] = assay: Downregulation of HDAC2 mRNA expression in human HL60 cells by qRT-PCR method relative to control; format: functional
M14 [3] = assay: Growth inhibition of human M14 cells assessed as cell growth at 10^-6 M incubated for 48 hrs by sulforhodamine B assay relative to control; format: functional; details: M14, 48 h, read-out: Activity
Hs-578T [4] = assay: Growth inhibition of human Hs 578T cells assessed as cell growth at 10^-8 M incubated for 48 hrs by sulforhodamine B assay relative to control; format: functional; details: read-out: Activity
RXF 393 = assay: Growth inhibition of human RXF393 cells assessed as cell growth at 10^-8 M incubated for 48 hrs by sulforhodamine B assay relative to control; format: functional; details: RXF 393, 48 h, read-out: Activity
NCI-H460 = assay: Growth inhibition of human NCI-H460 cells assessed as cell growth at 10^-5 M incubated for 48 hrs by sulforhodamine B assay relative to control; format: functional; details: NCI-H460, 48 h, read-out: Activity
SF-539 = assay: Growth inhibition of human SF539 cells assessed as cell growth at 10^-8 M incubated for 48 hrs by sulforhodamine B assay relative to control; format: functional; details: SF-539, 48 h, read-out: Activity
T47D = assay: Growth inhibition of human T47D cells assessed as cell growth at 10^-8 M incubated for 48 hrs by sulforhodamine B assay relative to control; format: functional; details: read-out: Activity
SN12C [5] = assay: Growth inhibition of human SN12C cells assessed as cell growth at 10^-6 M incubated for 48 hrs by sulforhodamine B assay relative to control; format: functional; details: read-out: Activity
SNB-19 = assay: Growth inhibition of human SNB19 cells assessed as cell growth at 10^-7 M incubated for 48 hrs by sulforhodamine B assay relative to control; format: functional; details: SNB-19, 48 h, read-out: Activity
OVCAR-3 [6] = assay: Growth inhibition of human OVCAR3 cells assessed as cell growth at 10^-5 M incubated for 48 hrs by sulforhodamine B assay relative to control; format: functional; details: OVCAR-3, 48 h, read-out: Activity
HL-60(TB) = assay: Growth inhibition of human HL-60(TB) cells incubated for 48 hrs by sulforhodamine B assay; format: functional; details: HL-60, 48 h
HL-60 [7] = assay: Downregulation of HDAC1 mRNA expression in human HL60 cells by qRT-PCR method; format: functional, cell-based
COLO 205 = assay: Growth inhibition of human COLO205 cells assessed as cell growth at 10^-4 M incubated for 48 hrs by sulforhodamine B assay relative to control; format: functional; details: COLO 205, 48 h, read-out: Activity
OVCAR-3 [8] = assay: Growth inhibition of human OVCAR3 cells assessed as cell growth at 10^-6 M incubated for 48 hrs by sulforhodamine B assay relative to control; format: functional; details: OVCAR-3, 48 h, read-out: Activity
SK-OV-3 = assay: Growth inhibition of human SKOV3 cells assessed as cell growth at 10^-6 M incubated for 48 hrs by sulforhodamine B assay relative to control; format: functional; details: SK-OV-3, 48 h, read-out: Activity
M14 [9] = assay: Growth inhibition of human M14 cells assessed as cell growth at 10^-4 M incubated for 48 hrs by sulforhodamine B assay relative to control; format: functional; details: M14, 48 h, read-out: Activity
SF-268 [10] = assay: Growth inhibition of human SF268 cells assessed as cell growth at 10^-6 M incubated for 48 hrs by sulforhodamine B assay relative to control; format: functional; details: SF-268, 48 h, read-out: Activity
LOX IMVI = assay: Growth inhibition of human LOXIMVI cells assessed as cell growth at 10^-6 M incubated for 48 hrs by sulforhodamine B assay relative to control; format: functional; details: read-out: Activity
NCI-H226 [11] = assay: Growth inhibition of human NCI-H226 cells assessed as cell growth at 10^-5 M incubated for 48 hrs by sulforhodamine B assay relative to control; format: functional; details: NCI-H226, 48 h, read-out: Activity
786-0 = assay: Growth inhibition of human 786-0 cells assessed as cell growth at 10^-7 M incubated for 48 hrs by sulforhodamine B assay relative to control; format: functional; details: 786-0, 48 h, read-out: Activity
RPMI-8226 = assay: Growth inhibition of human RPMI8226 cells assessed as cell growth at 10^-6 M incubated for 48 hrs by sulforhodamine B assay relative to control; format: functional; details: RPMI-8226, 48 h, read-out: Activity
ACHN = assay: Growth inhibition of human ACHN cells assessed as cell growth at 10^-7 M incubated for 48 hrs by sulforhodamine B assay relative to control; format: functional; details: read-out: Activity
HCT-116 = assay: Growth inhibition of human HCT116 cells assessed as cell growth at 10^-4 M incubated for 48 hrs by sulforhodamine B assay relative to control; format: functional; details: HCT-116, 48 h, read-out: Activity
A498 = assay: Growth inhibition of human A498 cells assessed as cell growth at 10^-8 M incubated for 48 hrs by sulforhodamine B assay relative to control; format: functional; details: A498, 48 h, read-out: Activity
A549 = assay: Growth inhibition of human A549/ATCC cells assessed as cell growth at 10^-6 M incubated for 48 hrs by sulforhodamine B assay relative to control; format: functional; details: A549, 48 h, read-out: Activity
NCI-H226 [12] = assay: Growth inhibition of human NCI-H226 cells assessed as cell growth at 10^-4 M incubated for 48 hrs by sulforhodamine B assay relative to control; format: functional; details: NCI-H226, 48 h, read-out: Activity
SF-295 = assay: Growth inhibition of human SF295 cells assessed as cell growth at 10^-4 M incubated for 48 hrs by sulforhodamine B assay relative to control; format: functional; details: SF-295, 48 h, read-out: Activity
SN12C [13] = assay: Growth inhibition of human SN12C cells assessed as cell growth at 10^-4 M incubated for 48 hrs by sulforhodamine B assay relative to control; format: functional; details: read-out: Activity
MDA-MB-435 [14] = assay: Induction of apoptosis in human MDA-MB-435 cells assessed as increase in caspase-3 expression by qRT-PCR method; format: functional, cell-based
MCF7 = assay: Growth inhibition of human MCF7 cells incubated for 48 hrs by sulforhodamine B assay; format: functional; details: MCF7, 48 h
SF-268 [15] = assay: Growth inhibition of human SF268 cells assessed as cell growth at 10^-5 M incubated for 48 hrs by sulforhodamine B assay relative to control; format: functional; details: SF-268, 48 h, read-out: Activity
Hs-578T [16] = assay: Growth inhibition of human Hs 578T cells assessed as cell growth at 10^-4 M incubated for 48 hrs by sulforhodamine B assay relative to control; format: functional; details: read-out: Activity
[17] = read-out: LC50 (the source's name)
[18] = read-out: pLC50 (the source's name) (converted)

With `CCS/C(Nc1ccccc1)=C(\C#N)C(=O)N/N=C\c1ccc(Cl)cc1Cl` the growth at 1 µM (DU-145) was 97%, the Activity (MDA-MB-435 [1]) was 61.56% and the “fold change (FC)” value (HL-60 [2]) was “<=10”. It also gave a growth at 1 µM (M14 [3]) of 72%, a growth at 0.01 µM (Hs-578T [4]) of 96% and a growth at 0.01 µM (RXF 393) of 93%. It also gave a growth at 10 µM (NCI-H460) of 9%, a growth at 0.01 µM (SF-539) of 105% and a growth at 0.01 µM (T47D) of 102%. It also gave a growth at 1 µM (SN12C [5]) of 96%, a growth at 0.1 µM (SNB-19) of 94% and a growth at 10 µM (OVCAR-3 [6]) of 1%. The GI50 (HL-60(TB); read-out: GI50) was 3.2 µM, the CC50 (HL-60(TB); [17]) was greater than 100 µM and the TGI (HL-60(TB); read-out: TGI) was greater than 100 µM. For the same compound, the GI50 (HL-60(TB); read-out: pGI50 (converted)) was 3.24 µM, the CC50 (HL-60(TB); [18]) was greater than 100 µM and the TGI (HL-60(TB); read-out: pTGI) was greater than 100 µM. The Activity (HL-60 [7]) was “Active”, the growth at 100 µM (COLO 205) was 3% and the growth at 1 µM (OVCAR-3 [8]) was 90%. It also gave a growth at 1 µM (SK-OV-3) of 92%, a growth at 100 µM (M14 [9]) of -3% and a growth at 1 µM (SF-268 [10]) of 87%. It also gave a growth at 1 µM (LOX IMVI) of 86%, a growth at 10 µM (NCI-H226 [11]) of 27% and a growth at 0.1 µM (786-0) of 88%. The growth at 1 µM (RPMI-8226) was 92%, the growth at 0.1 µM (ACHN) was 98% and the growth at 100 µM (HCT-116) was 3%. For the same compound, the growth at 0.01 µM (A498) was 91%, the growth at 1 µM (A549) was 92% and the growth at 100 µM (NCI-H226 [12]) was 11%. The growth at 100 µM (SF-295) was 3%, the growth at 100 µM (SN12C [13]) was 28% and the Activity (MDA-MB-435 [14]) was “Active”. The GI50 (MCF7; read-out: GI50) was 2.99 µM, the CC50 (MCF7; [17]) was greater than 100 µM and the TGI (MCF7; read-out: TGI) was greater than 100 µM. It also gave a GI50 (MCF7; read-out: pGI50 (converted)) of 3.02 µM, a CC50 (MCF7; [18]) greater than 100 µM and a TGI (MCF7; read-out: pTGI) greater than 100 µM. The growth at 10 µM (SF-268 [15]) was 42%.
`CCS/C(Nc1ccccc1)=C(\C#N)C(=O)Nc1ccc(OC)cc1` was tested, and the growth at 1 µM (DU-145) was 93%, the Activity (MDA-MB-435 [1]) was 51.68% and the “fold change (FC)” value (HL-60 [2]) was “<=10”. The growth at 1 µM (M14 [3]) was 72%, the growth at 0.01 µM (Hs-578T [4]) was 97% and the growth at 0.01 µM (RXF 393) was 106%. For the same compound, the growth at 10 µM (NCI-H460) was 10%, the growth at 0.01 µM (SF-539) was 94% and the growth at 0.01 µM (T47D) was 99%. It also gave a growth at 1 µM (SN12C [5]) of 96%, a growth at 0.1 µM (SNB-19) of 95% and a growth at 10 µM (OVCAR-3 [6]) of -6%. It also gave a GI50 (HL-60(TB); read-out: GI50) of 2.87 µM, a CC50 (HL-60(TB); [17]) greater than 100 µM and a TGI (HL-60(TB); read-out: TGI) greater than 100 µM. For the same compound, the GI50 (HL-60(TB); read-out: pGI50 (converted)) was 2.88 µM, the CC50 (HL-60(TB); [18]) was greater than 100 µM and the TGI (HL-60(TB); read-out: pTGI) was greater than 100 µM. The Activity (HL-60 [7]) was “Active”, the growth at 100 µM (COLO 205) was -17% and the growth at 100 µM (Hs-578T [16]) was 16%. For the same compound, the growth at 1 µM (OVCAR-3 [8]) was 90%, the growth at 1 µM (SK-OV-3) was 93% and the growth at 1 µM (SF-268 [10]) was 90%. The growth at 1 µM (LOX IMVI) was 89%, the growth at 10 µM (NCI-H226 [11]) was 37% and the growth at 0.1 µM (786-0) was 86%. It also gave a growth at 1 µM (RPMI-8226) of 79%, a growth at 0.1 µM (ACHN) of 93% and a growth at 100 µM (HCT-116) of -11%. For the same compound, the growth at 0.01 µM (A498) was 91%, the growth at 1 µM (A549) was 99% and the growth at 100 µM (NCI-H226 [12]) was -15%. The growth at 100 µM (SF-295) was 6%, the growth at 100 µM (SN12C [13]) was 16% and the Activity (MDA-MB-435 [14]) was “Active”. The GI50 (MCF7; read-out: GI50) was 2.71 µM, the CC50 (MCF7; [17]) was greater than 100 µM and the TGI (MCF7; read-out: TGI) was greater than 100 µM. It also gave a GI50 (MCF7; read-out: pGI50 (converted)) of 2.69 µM, a CC50 (MCF7; [18]) greater than 100 µM and a TGI (MCF7; read-out: pTGI) greater than 100 µM. For the same compound, the growth at 10 µM (SF-268 [15]) was 42%.

Reference: ChEMBL document CHEMBL4145553, “Design, synthesis, and biological evaluation of novel amide and hydrazide based thioether analogs targeting Histone deacteylase (HDAC) enzymes” (Eur J Med Chem, 2018)
